In patent USRE47302E1 (ONYX THERAPEUTICS INC., priority 2013, dated 2019) one finds solubility data, which are given here for 22 compounds.

Converted amounts (≈) assume the structure as drawn.

This series in a line: Solubility pH 7. The conditions noted are these: pH 7, aqueous buffer.
In general, solubility refers to the dissolved amount per volume that the medium holds. Read a high solubility as much dissolved substance. `C[C@H](NC(=O)CN1CCOCC1)C(=O)N[C@@H](Cc1ccc2[nH]cnc2c1)C(=O)N[C@@H](CC1CCCC1)C(=O)[C@@]1(C)CO1` [Compound C-1069, (S)-3-(1H-benzo[d]imidazol-5-yl)-N-((S)-3-cyclopentyl-1-((R)-2-methyloxiran-2-yl)-1-oxopropan-2-yl)-2-((S)-2-(2-morpholinoacetamido)propanamido)propanamide] had a solubility of 3540 µg/mL (≈ 6.08 mM).

Compound `COc1ccc(C[C@H](NC(=O)[C@@H](C)NC(=O)[C@H]2CC[C@H](O)CC2)C(=O)N[C@@H](CC2CC(F)(F)C2)C(=O)[C@@]2(C)CO2)cc1` [Compound C-1073, (1r,4R)-N-((R)-1-(((S)-1-(((S)-3-(3,3-difluorocyclobutyl)-1-((R)-2-methyloxiran-2-yl)-1-oxopropan-2-yl)amino)-3-(4-methoxyphenyl)-1-oxopropan-2-yl)amino)-1-oxopropan-2-yl)-4-hydroxycyclohexanecarboxamide] gave a solubility of 2180 µg/mL (≈ 3.67 mM).

Consider `COc1ccc(C[C@H](NC(=O)[C@@H](C)NC(=O)[C@@H]2CC[C@@H](O)C2)C(=O)N[C@@H](CC2CCCC2)C(=O)[C@@]2(C)CO2)cc1` [Compound C-1077, (1R,3R)-N-((R)-1-(((S)-1-(((S)-3-cyclopentyl-1-((R)-2-methyloxiran-2-yl)-1-oxopropan-2-yl)amino)-3-(4-methoxyphenyl)-1-oxopropan-2-yl)amino)-1-oxopropan-2-yl)-3-hydroxycyclopentanecarboxamide], for which the solubility came out at 1540 µg/mL (≈ 2.75 mM).

`COc1ccc(C[C@H](NC(=O)[C@@H](C)NC(=O)[C@@H]2CC[C@H](O)C2)C(=O)N[C@@H](CC2CCCC2)C(=O)[C@@]2(C)CO2)cc1` [Compound C-1078, (1R,3S)-N-((R)-1-(((S)-1-(((S)-3-cyclopentyl-1-((R)-2-methyloxiran-2-yl)-1-oxopropan-2-yl)amino)-3-(4-methoxyphenyl)-1-oxopropan-2-yl)amino)-1-oxopropan-2-yl)-3-hydroxycyclopentanecarboxamide] gave a solubility of 873 µg/mL (≈ 1.57 mM).

The compound `C[C@H](NC(=O)CN1CCOCC1)C(=O)N[C@@H](Cc1ccc2c(c1)CC(=O)N2)C(=O)N[C@@H](CC1CCCC1)C(=O)[C@@]1(C)CO1` [Compound C-1081, (S)-N-((S)-3-cyclopentyl-1-((R)-2-methyloxiran-2-yl)-1-oxopropan-2-yl)-2-((S)-2-(2-morpholinoacetamido)propanamido)-3-(2-oxoindolin-5-yl)propanamide] yielded a solubility of 2760 µg/mL (≈ 4.62 mM).

`C[C@H](NC(=O)CN1CCOCC1)C(=O)N[C@@H](Cc1ccc(OC(F)(F)F)cc1)C(=O)N[C@@H](CC1CCCC1)C(=O)[C@@]1(C)CO1` [Compound C-1084, (S)-N-((S)-3-cyclopentyl-1-((R)-2-methyloxiran-2-yl)-1-oxopropan-2-yl)-2-((S)-2-(2-morpholinoacetamido)propanamido)-3-(4-(trifluoromethoxy)phenyl)propanamide] came in with a solubility of 125 µg/mL (≈ 0.2 mM).

For `C[C@H](NC(=O)CN1CCOCC1)C(=O)N[C@@H](Cc1ccc2c(c1)CCC(=O)N2)C(=O)N[C@@H](CC1CCCC1)C(=O)[C@@]1(C)CO1` [Compound C-1086, (S)-N-((S)-3-cyclopentyl-1-((R)-2-methyloxiran-2-yl)-1-oxopropan-2-yl)-2-((S)-2-(2-morpholinoacetamido)propanamido)-3-(2-oxo-1,2,3,4-tetrahydroquinolin-6-yl)propanamide], the solubility came to 3860 µg/mL (≈ 6.32 mM).

Take `C[C@H](NC(=O)CN1CCOCC1)C(=O)N[C@@H](Cc1ccc2c(c1)CCNS2(=O)=O)C(=O)N[C@@H](CC1CCCC1)C(=O)[C@@]1(C)CO1` [Compound C-1091, (S)-N-((S)-3-cyclopentyl-1-((R)-2-methyloxiran-2-yl)-1-oxopropan-2-yl)-3-(1,1-dioxido-3,4-dihydro-2H-benzo[e][1,2]thiazin-6-yl)-2-((S)-2-(2-morpholinoacetamido)propanamido)propanamide]: the solubility was 230 µg/mL (≈ 0.356 mM).

For `COc1ccc(C[C@H](NC(=O)[C@H](C)NC(=O)CN2CCOCC2)C(=O)N[C@@H](CC2CC(F)(F)C2)C(=O)[C@@]2(C)CO2)cc1` [Compound C-1093, (S)-N-((S)-3-(3,3-difluorocyclobutyl)-1-((R)-2-methyloxiran-2-yl)-1-oxopropan-2-yl)-3-(4-methoxyphenyl)-2-((S)-2-(2-morpholinoacetamido)propanamido)propanamide], the solubility worked out at 6110 µg/mL (≈ 10.3 mM).

Regarding `COc1ccc(C[C@H](NC(=O)[C@H](C)NC(=O)CN2CCOCC2)C(=O)N[C@@H](C[C@H]2C[C@@H]3C[C@@H]3C2)C(=O)[C@@]2(C)CO2)cc1` [Compound C-1094, (S)-N-((S)-3-((1R,3s,5S)-bicyclo[3.1.0]hexan-3-yl)-1-((R)-2-methyloxiran-2-yl)-1-oxopropan-2-yl)-3-(4-methoxyphenyl)-2-((S)-2-(2-morholinoacetamido)propanamido)propanamide], the solubility came out at 1670 µg/mL (≈ 2.86 mM).

`COc1ccc(C[C@H](NC(=O)[C@@H](C)NC(=O)C2CCN(C)CC2)C(=O)N[C@@H](CC2=CCCC2)C(=O)[C@@]2(C)CO2)cc1` [Compound C-1098, N-((R)-1-(((S)-1-(((S)-3-(cyclopent-1-en-1-yl)-1-((R)-2-methyloxiran-2-yl)-1-oxopropan-2-yl)amino)-3-(4-methoxyphenyl)-1-oxopropan-2-yl)amino)-1-oxopropan-2-yl)-1-methylpiperidine-4-carboxamide] had a solubility of 7830 µg/mL (≈ 13.8 mM).

On to `COc1ccc(C[C@H](NC(=O)[C@@H](C)NC(=O)[C@@H]2CCCN(C)C2)C(=O)N[C@@H](CC2=CCCC2)C(=O)[C@@]2(C)CO2)cc1` [Compound C-1099, (R)-N-((R)-1-(((S)-1-(((S)-3-(cyclopent-1-en-1-yl)-1-((R)-2-methyloxiran-2-yl)-1-oxopropan-2-yl)amino)-3-(4-methoxyphenyl)-1-oxopropan-2-yl)amino)-1-oxopropan-2-yl)-1-methylpiperidine-3-carboxamide], for which the solubility was determined as 7310 µg/mL (≈ 12.9 mM).

Regarding `COc1ccc(C[C@H](NC(=O)[C@H](C)NC(=O)CN2CCOCC2)C(=O)N[C@@H](CC2=CCCCC2)C(=O)[C@@]2(C)CO2)cc1O` [Compound C-1100], the solubility is 4570 µg/mL (≈ 7.61 mM).

As to `C[C@H](NC(=O)CN1CCOCC1)C(=O)NC(Cc1ccc2c(c1)COC(=O)N2)C(=O)N[C@@H](CC1CCCC1)C(=O)[C@@]1(C)CO1` (stereo partly drawn) [Compound C-1101, N-((S)-3-cyclopentyl-1-((R)-2-methyloxiran-2-yl)-1-oxopropan-2-yl)-2-((S)-2-(2-morpholinoacetamido)propanamido)-3-(2-oxo-2,4-dihydro-1H-benzo[d][1,3]oxazin-6-yl)propanamide], the solubility came to 4090 µg/mL (≈ 6.67 mM).

Regarding `C[C@H](NC(=O)CN1CCOCC1)C(=O)N[C@@H](Cc1ccc2c(c1)CCS(=O)(=O)N2)C(=O)N[C@@H](CC1CCCC1)C(=O)[C@@]1(C)CO1` [Compound C-1102, (S)-N-((S)-3-cyclopentyl-1-((R)-2-methyloxiran-2-yl)-1-oxopropan-2-yl)-3-(2,2-dioxido-3,4-dihydro-1H-benzo[c][1,2]thiazin-6-yl)-2-((S)-2-(2-morpholinoacetamido)propanamido)propanamide], the concentration in solution (solubility) came to 3410 µg/mL (≈ 5.26 mM).

Turning to `COc1ccc(C[C@H](NC(=O)[C@@H](NC(=O)CN2CCOCC2)C2CC2)C(=O)N[C@@H](CC2CCCC2)C(=O)[C@@]2(C)CO2)cc1` [Compound C-1107, (S)-N-((S)-3-cyclopentyl-1-((R)-2-methyloxiran-2-yl)-1-oxopropan-2-yl)-2-((S)-2-cyclopropyl-2-(2-morpholinoacetamido)acetamido)-3-(4-methoxyphenyl)propanamide], the concentration in solution (solubility) was 200 µg/mL (≈ 0.334 mM).

`C[C@H](NC(=O)CN1CCOCC1)C(=O)N[C@@H](Cc1ccc2c(c1)CNC(=O)O2)C(=O)N[C@@H](CC1CCCC1)C(=O)[C@@]1(C)CO1` [Compound C-1108, (S)-N-((S)-3-cyclopentyl-1-((R)-2-methyloxiran-2-yl)-1-oxopropan-2-yl)-2-((S)-2-(2-morpholinoacetamido)propanamido)-3-(2-oxo-3,4-dihydro-2H-benzo[e][1,3]oxazin-6-yl)propanamide]: the concentration in solution (solubility) was 4730 µg/mL (≈ 7.71 mM).

With `COc1ccc(C[C@H](NC(=O)[C@@H](C)NC(=O)[C@]2(C)CC[C@@H](O)CC2)C(=O)N[C@@H](CC2=CCCC2)C(=O)[C@@]2(C)CO2)cc1` [Compound C-1111, (1r,4R)-N-((R)-1-(((S)-1-(((S)-3-(Cyclopent-1-en-1-yl)-1-((R)-2-methyloxiran-2-yl)-1-oxopropan-2-yl)amino)-3-(4-methoxyphenyl)-1-oxopropan-2-yl)amino)-1-oxopropan-2-yl)-4-hydroxy-1-methylcyclohexanecarboxamide], the solubility amounted to 1070 µg/mL (≈ 1.84 mM).

Turning to `COc1ccc(C[C@H](NC(=O)[C@@H](C)NC(=O)[C@]2(C)CC[C@H](O)CC2)C(=O)N[C@@H](CC2=CCCC2)C(=O)[C@@]2(C)CO2)cc1` [Compound C-1112, (1s,4S)-N-((R)-1-(((S)-1-(((S)-3-(cyclopent-1-en-1-yl)-1-((R)-2-methyloxiran-2-yl)-1-oxopropan-2-yl)amino)-3-(4-methoxyphenyl)-1-oxopropan-2-yl)amino)-1-oxopropan-2-yl)-4-hydroxy-1-methylcyclohexanecarboxamide], the solubility turned out to be 1110 µg/mL (≈ 1.91 mM).

Compound `C[C@H](NC(=O)CN1CCOCC1)C(=O)N[C@@H](Cc1ccc(O)cc1)C(=O)N[C@@H](CC1CCCC1)C(=O)[C@@]1(C)CO1` [Compound C-1113, (S)-N-((S)-3-cyclopentyl-1-((R)-2-methyloxiran-2-yl)-1-oxopropan-2-yl)-3-(4-hydroxyphenyl)-2-((S)-2-(2-morpholinoacetamido)propanamido)propanamide] yielded a solubility of 3790 µg/mL (≈ 6.78 mM).

As for `C[C@H](NC(=O)CN1CCOCC1)C(=O)N[C@@H](Cc1cccc(O)c1)C(=O)N[C@@H](CC1CCCC1)C(=O)[C@@]1(C)CO1` [Compound C-1114, (S)-N-((S)-3-cyclopentyl-1-((R)-2-methyloxiran-2-yl)-1-oxopropan-2-yl)-3-(3-hydroxyphenyl)-2-((S)-2-(2-morpholinoacetamido)propanamido)propanamide], the solubility is 793 µg/mL (≈ 1.42 mM).

For `COc1ccc(C[C@H](NC(=O)[C@H](C)NC(=O)CN2CCS(=O)(=O)CC2)C(=O)N[C@@H](CC2=CCCC2)C(=O)[C@@]2(C)CO2)cc1` [Compound C-1115, (S)-N-((S)-3-(cyclopent-1-en-1-yl)-1-((R)-2-methyloxiran-2-yl)-1-oxopropan-2-yl)-2-((S)-2-(2-(1,1-dioxidothiomorpholino)acetamido)propanamido)-3-(4-methoxyphenyl)propanamide], the solubility is 496 µg/mL (≈ 0.801 mM).
